Reference: paper PMC7721589, “Synthesis and structure-activity relationships for tetrahydroisoquinoline-based inhibitors of Mycobacterium tuberculosis” (Bioorganic & Medicinal Chemistry, 2020)
Values after ≈ are worked out from the molar mass of the structure shown. Read-outs that look alike come from different tables or passages of the source.

Legend:
M.tb strain H37Rv [1] = experiment: MIC against M.tb H37Rv under aerobic (replicating; MABA) conditions; assay type: cell-based, Mycobacterium tuberculosis; conditions: for MIC: Mycobacterium tuberculosis; for MIC MABA: MIC90, Table 1
[2] = tested on: Vero green monkey-derived epithelial kidney cells; experiment: Mammalian cytotoxicity in Vero cells; assay type: cell-based; conditions: for IC50: Chlorocebus sabaeus
M.tb strain H37Rv [3] = experiment: MIC against M.tb H37Rv under non-replicating (LORA) conditions; conditions: for MIC LORA: MIC90, Table 1; for MIC (µg/mL) LORA: MIC90, Table 2
[4] = MIC90, Table 1, read-out: MIC MABA
[5] = MIC90, Table 2, read-out: MIC (µg/mL) MABA

CN1CCN(c2ccc(F)c3c2CN(Cc2ccc(-c4ccc(Cl)cc4C(F)(F)F)cn2)CC3)CC1 [Compound 17, 2-((5-(4-Chloro-2-(trifluoromethyl)phenyl)pyridin-2-yl)methyl)-5-fluoro-8-(4-methylpiperazin-1-yl)-1,2,3,4-tetrahydroisoquinoline]
MIC (M.tb strain H37Rv [1]; [4]): 2.3 µg/mL (≈ 4.43 µM)
IC50 ([2]; Table 1): 11 µg/mL (≈ 21.2 µM)
melting point: 102 to 104 °C
MIC LORA (M.tb strain H37Rv [3]): 5.4 µg/mL (≈ 10.4 µM)

2-((5-(4-Chlorophenyl)pyridin-2-yl)methyl)-8-(4-methoxypiperazin-1-yl)-5-methyl-1,2,3,4-tetrahydroisoquinoline [Compound 13]
MIC MABA (M.tb strain H37Rv [1]): 1.8 µg/mL
IC50 VERO ([2]; Table 1): 12 µg/mL
MIC LORA (M.tb strain H37Rv [3]): 6.1 µg/mL

Cc1cc(Cl)ccc1-c1ccc(CN2CCc3c(F)ccc(N4CCN(C)CC4)c3C2)nc1 [Compound 15, 2-((5-(4-Chloro-2-methylphenyl)pyridin-2-yl)methyl)-8-(4-methylpiperazin-1-yl)-5-fluoro-1,2,3,4-tetrahydroisoquinoline]
MIC (M.tb strain H37Rv [1]; [4]): 3.8 µg/mL (≈ 8.17 µM)
IC50 ([2]; Table 1): 24 µg/mL (≈ 51.6 µM)
MIC LORA (M.tb strain H37Rv [3]): 6.1 µg/mL (≈ 13.1 µM)

Cc1ccc(-c2ccc(NC(=O)N3CCc4c(Cc5ccccc5)ccc(N5CCN(C)CC5)c4C3)nc2)c(C)c1 [Compound 30, 5-Benzyl-N-(5-(2,4-dimethylphenyl)pyridin-2-yl)-8-(4-methylpiperazin-1-yl)-3,4-dihydroisoquinoline-2(1H)-carboxamide]
MIC (M.tb strain H37Rv [1]; [4]): 2 µg/mL (≈ 3.66 µM)
IC50 ([2]; Table 1): 11 µg/mL (≈ 20.2 µM)
melting point: 94 to 97 °C
MIC LORA (M.tb strain H37Rv [3]): 1.9 µg/mL (≈ 3.48 µM)

CN1CCN(c2cccc3c2CN(C(=O)Cc2ccc(-c4ccccc4)cn2)CC3)CC1 [Compound 44, 1-(8-(4-Methylpiperazin-1-yl)-3,4-dihydroisoquinolin-2(1H)-yl)-2-(5-phenylpyridin-2-yl)ethan-1-one]
MIC (M.tb strain H37Rv [1]; [4]): > 32 µg/mL
IC50 ([2]; Table 1): > 32 µg/mL
MIC LORA (M.tb strain H37Rv [3]): >32 µg/mL

Cc1cc(Cl)ccc1-c1ccc(CC(=O)N2CCc3cccc(N4CCN(C)CC4)c3C2)nc1 [Compound 47]
MIC (M.tb strain H37Rv [1]; [4]): 14 µg/mL (≈ 29.5 µM)
IC50 ([2]; Table 1): 11 µg/mL (≈ 23.2 µM)
melting point: 45 to 48 °C
MIC LORA (M.tb strain H37Rv [3]): 19.4 µg/mL (≈ 40.8 µM)

COc1ccc(N2CCN(C)CC2)c2c1CCN(C(=O)Nc1ccc(-c3cncnc3)cn1)C2 [Compound 31, 5-Methoxy-8-(4-methylpiperazin-1-yl)-N-(5-(pyrimidin-5-yl)pyridin-2-yl)-3,4-dihydroisoquinoline-2(1H)-carboxamide]
MIC (M.tb strain H37Rv [1]; [4]): > 32 µg/mL
IC50 ([2]; Table 1): > 32 µg/mL
melting point: 236 to 239 °C
MIC LORA (M.tb strain H37Rv [3]): >32 µg/mL

Cc1cc(Cl)ccc1-c1ccc(NC(=O)N2CCc3cccc(N4CCN(C)CC4)c3C2)nc1 [Compound 24, N-(5-(4-Chloro-2-methylphenyl)pyridin-2-yl)-8-(4-methylpiperazin-1-yl)-3,4-dihydroisoquinoline-2(1H)-carboxamide]
MIC (M.tb strain H37Rv [1]; [4]): 6.2 µg/mL (≈ 13 µM)
IC50 ([2]; Table 1): 11 µg/mL (≈ 23.1 µM)
MIC LORA (M.tb strain H37Rv [3]): 7.7 µg/mL (≈ 16.2 µM)

CCc1ccc(N2CCN(C)CC2)c2c1CCN(C(=O)Nc1ccc(-c3ccc(Cl)cc3C)cn1)C2 [Compound 28, N-(5-(4-Chloro-2-methylphenyl)pyridin-2-yl)-5-ethyl-8-(4-methylpiperazin-1-yl)-3,4-dihydroisoquinoline-2(1H)-carboxamide]
MIC (M.tb strain H37Rv [1]; [4]): 2.9 µg/mL (≈ 5.75 µM)
IC50 ([2]; Table 1): 12 µg/mL (≈ 23.8 µM)
melting point: 180 to 182 °C
MIC LORA (M.tb strain H37Rv [3]): 1.8 µg/mL (≈ 3.57 µM)

CN1CCN(c2cccc3c2CN(C(=O)Cc2ccc(-c4ccc(Cl)cc4)cn2)CC3)CC1 [Compound 43, 2-(5-(4-Chlorophenyl)pyridin-2-yl)-1-(8-(4-methylpiperazin-1-yl)-3,4-dihydroisoquinolin-2(1H)-yl)ethan-1-one]
MIC (M.tb strain H37Rv [1]; [4]): 14.1 µg/mL (≈ 30.6 µM)
IC50 ([2]; Table 1): 19 µg/mL (≈ 41.2 µM)
melting point: 49 to 52 °C
MIC LORA (M.tb strain H37Rv [3]): 20.3 µg/mL (≈ 44 µM)

COc1ccc(-c2ccc(NC(=O)N3CCc4c(OC)ccc(N5CCN(C)CC5)c4C3)nc2)cc1 [Compound 33, 5-Methoxy-N-(5-(4-methoxyphenyl)pyridin-2-yl)-8-(4-methylpiperazin-1-yl)-3,4-dihydroisoquinoline-2(1H)-carboxamide]
MIC (M.tb strain H37Rv [1]; [4]): 7.1 µg/mL (≈ 14.6 µM)
IC50 ([2]; Table 1): 16 µg/mL (≈ 32.8 µM)
melting point: 207 to 209 °C
MIC LORA (M.tb strain H37Rv [3]): 7.4 µg/mL (≈ 15.2 µM)

CN1CCN(c2cccc3c2CN(C(=O)Cc2ccc(-c4ccc(OC(F)(F)F)cc4)cn2)CC3)CC1 [Compound 46, 1-(8-(4-Methylpiperazin-1-yl)-3,4-dihydroisoquinolin-2(1H)-yl)-2-(5-(4-(trifluoromethoxy)phenyl)pyridin-2-yl)ethan-1-one]
MIC (M.tb strain H37Rv [1]; [4]): 13.7 µg/mL (≈ 26.8 µM)
IC50 ([2]; Table 1): 20 µg/mL (≈ 39.2 µM)
MIC LORA (M.tb strain H37Rv [3]): 12.4 µg/mL (≈ 24.3 µM)

CN1CCN(c2cccc3c2CN(C(=O)c2ccc(-c4cccc(Cl)c4)cn2)CC3)CC1 [Compound 20, (5-(3-Chlorophenyl)pyridin-2-yl)(8-(4-methylpiperazin-1-yl)-3,4-dihydroisoquinolin-2(1H)-yl)methanone]
MIC (M.tb strain H37Rv [1]; [4]): 15 µg/mL (≈ 33.6 µM)
IC50 ([2]; Table 1): 24 µg/mL (≈ 53.7 µM)
melting point: 105 to 108 °C
MIC LORA (M.tb strain H37Rv [3]): 11.3 µg/mL (≈ 25.3 µM)

COc1ccc(-c2ccc(NC(=O)N3CCc4c(OC)ccc(N5CCN(C)CC5)c4C3)nc2)cn1 [Compound 32, 5-Methoxy-N-(6′-methoxy-[3,3′-bipyridin]-6-yl)-8-(4-methylpiperazin-1-yl)-3,4-dihydroisoquinoline-2(1H)-carboxamide]
MIC (M.tb strain H37Rv [1]; [4]): 15.5 µg/mL (≈ 31.7 µM)
IC50 ([2]; Table 1): 14 µg/mL (≈ 28.7 µM)
melting point: 93 to 96 °C
MIC LORA (M.tb strain H37Rv [3]): 20 µg/mL (≈ 40.9 µM)

CSc1ccc(N2CCN(C)CC2)c2c1CCN(C(=O)Nc1ccc(-c3cc(C(F)(F)F)cc(C(F)(F)F)c3)cn1)C2 [Compound 39, N-(5-(3,5-Bis(trifluoromethyl)phenyl)pyridin-2-yl)-8-(4-methylpiperazin-1-yl)-5-(methylthio)-3,4-dihydroisoquinoline-2(1H)-carboxamide]
MIC (M.tb strain H37Rv [1]; [4]): 3.6 µg/mL (≈ 5.91 µM)
IC50 ([2]; Table 1): 20 µg/mL (≈ 32.8 µM)
MIC LORA (M.tb strain H37Rv [3]): 4.0 µg/mL (≈ 6.56 µM)

CSc1ccc(N2CCN(C)CC2)c2c1CCN(Cc1ccc(-c3ccc(Cl)cc3C)cn1)C2 [Compound 14, 2-((5-(4-Chloro-2-methylphenyl)pyridin-2-yl)methyl)-8-(4-methylpiperazin-1-yl)-5-(methylthio)-1,2,3,4-tetrahydroisoquinoline]
MIC (M.tb strain H37Rv [1]; [4]): 3.4 µg/mL (≈ 6.89 µM)
IC50 ([2]; Table 1): 11 µg/mL (≈ 22.3 µM)
melting point: 65 to 68 °C
MIC LORA (M.tb strain H37Rv [3]): 6.0 µg/mL (≈ 12.2 µM)

Cc1cc(Cl)ccc1-c1ccc(CN2CCc3c(C)ccc(N4CCCCC4)c3C2)nc1 [Compound 55, 2-((5-(4-Chloro-2-methylphenyl)pyridin-2-yl)methyl)-5-methyl-8-(piperidin-1-yl)-1,2,3,4-tetrahydroisoquinoline]
MIC (M.tb strain H37Rv [1]; [5]): 2.6 µg/mL (≈ 5.83 µM)
IC50 ([2]; Table 2): > 32 µg/mL
melting point: 96 to 98 °C

2-((5-(2,4-Dichlorophenyl)pyridin-2-yl)methyl)-8-(4-methylpiperazin-1-yl)-1,2,3,4-tetrahydroisoquinoline [Compound 11]
MIC MABA (M.tb strain H37Rv [1]): 3.6 µg/mL
MIC LORA (M.tb strain H37Rv [3]): 11 µg/mL

Cc1ccc(N2CCN(C)CC2)c2c1CCN(C(=O)Nc1ccc(-c3ccc(Cl)cc3Cl)cn1)C2 [Compound 25, N-(5-(2,4-Dichlorophenyl)pyridin-2-yl)-5-methyl-8-(4-methylpiperazin-1-yl)-3,4-dihydroisoquinoline-2(1H)-carboxamide]
MIC (M.tb strain H37Rv [1]; [4]): 1.95 µg/mL (≈ 3.82 µM)
IC50 ([2]; Table 1): 12 µg/mL (≈ 23.5 µM)
MIC LORA (M.tb strain H37Rv [3]): 1.99 µg/mL (≈ 3.9 µM)

CN1CCN(c2ccc(F)c3c2CN(C(=O)Nc2ccc(-c4ccc(Cl)c(C(F)(F)F)c4)cn2)CC3)CC1 [Compound 41, N-(5-(4-Chloro-3-(trifluoromethyl)phenyl)pyridin-2-yl)-5-fluoro-8-(4-methylpiperazin-1-yl)-3,4-dihydroisoquinoline-2(1H)-carboxamide]
MIC (M.tb strain H37Rv [1]; [4]): 1.4 µg/mL (≈ 2.55 µM)
IC50 ([2]; Table 1): 10 µg/mL (≈ 18.2 µM)
MIC LORA (M.tb strain H37Rv [3]): 2.9 µg/mL (≈ 5.29 µM)

Cc1cc(Cl)ccc1-c1ccc(CN2CCc3c(C)ccc(N4CCNCC4)c3C2)nc1 [Compound 52, 2-((5-(4-Chloro-2-methylphenyl)pyridin-2-yl)methyl)-5-methyl-8-(piperazin-1-yl)-1,2,3,4-tetrahydroisoquinoline]
MIC (M.tb strain H37Rv [1]; [5]): 1.8 µg/mL (≈ 4.03 µM)
IC50 ([2]; Table 2): 12 µg/mL (≈ 26.8 µM)
MIC (µg/mL) LORA (M.tb strain H37Rv [3]): 4.4 µg/mL (≈ 9.84 µM)

COc1ccc(N2CCN(C)CC2)c2c1CCN(C(=O)Nc1ccc(-c3cc(C(F)(F)F)cc(C(F)(F)F)c3)cn1)C2 [Compound 38, N-(5-(3,5-Bis(trifluoromethyl)phenyl)pyridin-2-yl)-5-methoxy-8-(4-methylpiperazin-1-yl)-3,4-dihydroisoquinoline-2(1H)-carboxamide]
MIC (M.tb strain H37Rv [1]; [4]): 1.3 µg/mL (≈ 2.19 µM)
IC50 ([2]; Table 1): 10 µg/mL (≈ 16.8 µM)
melting point: 106 to 109 °C

Cc1cc(Cl)ccc1-c1ccc(CN2CCc3c(C)ccc(N4CCOCC4)c3C2)nc1 [Compound 53, 4-(2-((5-(4-Chloro-2-methylphenyl)pyridin-2-yl)methyl)-5-methyl-1,2,3,4-tetrahydroisoquinolin-8-yl)morpholine]
MIC (M.tb strain H37Rv [1]; [5]): 7.8 µg/mL (≈ 17.4 µM)
IC50 ([2]; Table 2): > 32 µg/mL
MIC (µg/mL) LORA (M.tb strain H37Rv [3]): 12 µg/mL (≈ 26.8 µM)

CN1CCN(c2cccc3c2CN(C(=O)Cc2ccc(-c4cccc(Cl)c4)cn2)CC3)CC1 [Compound 45, 2-(5-(3-Chlorophenyl)pyridin-2-yl)-1-(8-(4-methylpiperazin-1-yl)-3,4-dihydroisoquinolin-2(1H)-yl)ethan-1-one]
MIC (M.tb strain H37Rv [1]; [4]): 15 µg/mL (≈ 32.5 µM)
IC50 ([2]; Table 1): 25 µg/mL (≈ 54.2 µM)
MIC LORA (M.tb strain H37Rv [3]): 21.7 µg/mL (≈ 47.1 µM)

Cc1cc(Cl)ccc1-c1ccc(NC(=O)N2CCc3c(Cc4ccccc4)ccc(N4CCN(C)CC4)c3C2)nc1 [Compound 29, 5-Benzyl-N-(5-(4-chloro-2-methylphenyl)pyridin-2-yl)-8-(4-methylpiperazin-1-yl)-3,4-dihydroisoquinoline-2(1H)-carboxamide]
MIC (M.tb strain H37Rv [1]; [4]): 1.8 µg/mL (≈ 3.18 µM)
IC50 ([2]; Table 1): 11 µg/mL (≈ 19.4 µM)
MIC LORA (M.tb strain H37Rv [3]): 1.5 µg/mL (≈ 2.65 µM)

CN1CCN(c2ccc(F)c3c2CN(Cc2ccc(-c4ccc(F)cc4F)cn2)CC3)CC1 [Compound 16, 2-((5-(2,4-Difluorophenyl)pyridin-2-yl)methyl)-5-fluoro-8-(4-methylpiperazin-1-yl)-1,2,3,4-tetrahydroisoquinoline]
MIC (M.tb strain H37Rv [1]; [4]): 15 µg/mL (≈ 33.1 µM)
IC50 ([2]; Table 1): 22 µg/mL (≈ 48.6 µM)
MIC LORA (M.tb strain H37Rv [3]): 21 µg/mL (≈ 46.4 µM)
